Measured values as given in ChEMBL document CHEMBL1201862, “PubChem BioAssay data set” (2004).
Activity calls are given as the source filed them.

How the values were obtained:
[1] = target: Nonstructural protein 1 (Influenza A virus, UniProt Q194T2); assay type: functional, Influenza A virus (A/California/07/2009(H1N1))
[2] = target: T1, Short transient receptor potential channel 4 (Mus musculus, UniProt Q9QUQ5); test: block of DAMGO-driven TRPC4 calcium entry – cell-based, HEK293 TRPC4/mu-opioid, Fluo-4 calcium, dose response (AID 434942); assay type: functional;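 also: potency of inhibitors blocking the TRPC4 calcium response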
T1 sequence (Q9QUQ5 whole entry): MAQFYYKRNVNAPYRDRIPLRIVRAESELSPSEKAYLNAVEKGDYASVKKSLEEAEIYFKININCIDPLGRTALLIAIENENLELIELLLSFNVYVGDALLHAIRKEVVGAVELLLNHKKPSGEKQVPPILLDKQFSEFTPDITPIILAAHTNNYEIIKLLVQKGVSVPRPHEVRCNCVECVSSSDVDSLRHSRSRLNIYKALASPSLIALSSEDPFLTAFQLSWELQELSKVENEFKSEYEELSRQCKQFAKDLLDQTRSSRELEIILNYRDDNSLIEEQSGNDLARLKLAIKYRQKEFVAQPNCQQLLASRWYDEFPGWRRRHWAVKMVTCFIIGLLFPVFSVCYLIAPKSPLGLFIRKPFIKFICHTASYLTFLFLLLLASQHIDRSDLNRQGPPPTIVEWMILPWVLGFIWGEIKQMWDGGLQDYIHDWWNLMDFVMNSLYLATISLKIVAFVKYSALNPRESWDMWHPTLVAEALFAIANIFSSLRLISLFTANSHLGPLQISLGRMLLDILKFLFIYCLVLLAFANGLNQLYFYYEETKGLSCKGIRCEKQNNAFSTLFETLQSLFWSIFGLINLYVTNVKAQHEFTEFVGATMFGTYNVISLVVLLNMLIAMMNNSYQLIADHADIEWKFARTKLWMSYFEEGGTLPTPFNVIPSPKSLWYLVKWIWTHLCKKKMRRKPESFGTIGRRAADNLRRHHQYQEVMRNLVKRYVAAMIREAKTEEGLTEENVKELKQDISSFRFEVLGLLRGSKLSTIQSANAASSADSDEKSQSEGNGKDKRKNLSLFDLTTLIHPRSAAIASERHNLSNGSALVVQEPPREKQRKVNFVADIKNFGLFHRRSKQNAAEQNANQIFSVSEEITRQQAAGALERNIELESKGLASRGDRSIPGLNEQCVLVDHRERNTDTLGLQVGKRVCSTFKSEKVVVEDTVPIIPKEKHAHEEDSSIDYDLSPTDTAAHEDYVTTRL

[3] = target: T2, Fatty acid synthase (Homo sapiens, UniProt P49327); test: inhibition of human FAS-TE enzyme activity – biochemical, kinetic fluorescence intensity, dose response (AID 624326); assay type: functional;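 also: rate of fluorescence rise from hydrolysis of a fluorogenic O-methyl fluorescein ester substrate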
[4] = tested on: Vero; test: viability of Vero cells under compound – cytotoxicity control for flavivirus capping enzyme inhibitors (AID 588742); assay type: functional; conditions: Chlorocebus sabaeus
[5] = target: T2, Fatty acid synthase; test: inhibition of human FAS-TE enzyme activity – biochemical, endpoint fluorescence intensity, uHTS hits, dose response (AID 624327); assay type: functional;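 also: fluorescence from hydrolysis of an O-methyl fluorescein acyl ester substrate by the enzyme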
[6] = target: Genome polyprotein (dengue virus type 2, UniProt P29990); test: flavivirus cap methylation enzyme inhibition – biochemical, confirmation dose response, primary screen (AID 588689); assay type: functional
[7] = target: T1, Short transient receptor potential channel 4; test: calcium entry via TRPC4 opening agents – cell-based, HEK293 TRPC4/mu-opioid, Fluo-4 calcium, dose response (AID 434937); assay type: functional
[8] = DRD fibroblast viability loss – cell-based, non-viral oncogenic, luminescence, dose response (AID 1934); assay type: functional; conditions: Homo sapiens
[9] = tested on: BJ; test: cells; assay type: functional, cell-based; conditions: Homo sapiens
[10] = HEK-293T viability loss after treatment – luminescence, T-cell screen hits, cytotoxicity control for TCR NF-kB inhibitor project, dose response (AID 489026); assay type: functional, cell-based;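 also: cells exposed to compound about 14 hours before the viability readout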
[11] = tested on: BJ; test: BJ-TERT fibroblast viability loss – cell-based, RAS-independent, luminescence, dose response (AID 1933); assay type: functional; conditions: Homo sapiens
[12] = tested on: BJ; test: BJ-TERT-LT-ST fibroblast viability loss – cell-based, RAS-independent, luminescence, dose response (AID 1935); assay type: functional; conditions: Homo sapiens;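 also: BJ fibroblasts immortalized with TERT plus LT and ST oncogenes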
[13] = Luminescence Cell-Based Dose Retest to Confirm Inhibitors of Cancer Stem Cells. [Related pubchem assays (depositor defined):AID2717, AID2721]; assay type: functional, Homo sapiens; conditions: Homo sapiens
[14] = target: Heat shock protein HSP 90-alpha (Homo sapiens, UniProt P07900); assay type: functional, organism-based
[15] = tested on: Vero; test: cells; assay type: functional; conditions: Chlorocebus sabaeus
[16] = target: T3, Microphthalmia-associated transcription factor (Homo sapiens, UniProt O75030); test: reducers of TRPM1 reporter luminescence, concentration series – cell-based, SK-MEL-5, cherry-picked, set 3, MITF inhibitor project, dose response (AID 493073); assay type: functional;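 also: SK-MEL-5 melanoma cells with luciferase driven by the MITF target TRPM1 promoter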
T3 sequence (O75030 whole entry): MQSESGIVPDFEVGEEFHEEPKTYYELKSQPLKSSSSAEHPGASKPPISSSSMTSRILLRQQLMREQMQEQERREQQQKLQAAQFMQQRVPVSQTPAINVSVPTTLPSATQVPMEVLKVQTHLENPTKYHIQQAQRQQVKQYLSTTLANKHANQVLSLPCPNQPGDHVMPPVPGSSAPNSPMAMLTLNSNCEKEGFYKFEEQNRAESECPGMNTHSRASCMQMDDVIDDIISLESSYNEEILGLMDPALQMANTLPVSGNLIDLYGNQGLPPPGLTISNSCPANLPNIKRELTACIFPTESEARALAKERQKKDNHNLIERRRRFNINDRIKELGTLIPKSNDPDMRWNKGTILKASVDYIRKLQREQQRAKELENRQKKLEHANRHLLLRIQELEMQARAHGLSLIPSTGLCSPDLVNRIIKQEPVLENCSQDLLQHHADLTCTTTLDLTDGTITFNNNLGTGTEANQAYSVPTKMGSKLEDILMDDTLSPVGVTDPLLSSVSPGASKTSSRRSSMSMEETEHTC

[17] = cells; assay type: functional
[18] = Trypanosoma cruzi growth suppression in host cells – NIH3T3 host cells, beta-gal luminescence, confirmation (AID 2044); assay type: functional, cell-based;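 also: intracellular parasites grown in NIH/3T3 mouse fibroblasts as host cells; luminescent beta-galactosidase reporter signal from transgenic T. cruzi replicating inside host cells; inhibitors lower the luminescence signal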
[19] = NIH3T3 cell viability loss – ATP luminescence, mouse fibroblasts, counter-screen, dose response (AID 2010); assay type: functional, cell-based;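 also: cells exposed to compound for about 90 hours before reading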
[20] = target: T4, Heat shock factor protein 1 (Mus musculus, UniProt P38532); test: enhancement of HSF1-driven luciferase signal – cell-based, NIH3T3, luminescence, dose retest, confirmation (AID 435004); assay type: functional;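 also: stress induced by proteasome inhibitor MG132 added 30 min after compound; luciferase reporter driven by HSF1 response element in NIH3T3 cells; actives raise luminescence as potentiators of the MG132 stress response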
T4 sequence (P38532 whole entry): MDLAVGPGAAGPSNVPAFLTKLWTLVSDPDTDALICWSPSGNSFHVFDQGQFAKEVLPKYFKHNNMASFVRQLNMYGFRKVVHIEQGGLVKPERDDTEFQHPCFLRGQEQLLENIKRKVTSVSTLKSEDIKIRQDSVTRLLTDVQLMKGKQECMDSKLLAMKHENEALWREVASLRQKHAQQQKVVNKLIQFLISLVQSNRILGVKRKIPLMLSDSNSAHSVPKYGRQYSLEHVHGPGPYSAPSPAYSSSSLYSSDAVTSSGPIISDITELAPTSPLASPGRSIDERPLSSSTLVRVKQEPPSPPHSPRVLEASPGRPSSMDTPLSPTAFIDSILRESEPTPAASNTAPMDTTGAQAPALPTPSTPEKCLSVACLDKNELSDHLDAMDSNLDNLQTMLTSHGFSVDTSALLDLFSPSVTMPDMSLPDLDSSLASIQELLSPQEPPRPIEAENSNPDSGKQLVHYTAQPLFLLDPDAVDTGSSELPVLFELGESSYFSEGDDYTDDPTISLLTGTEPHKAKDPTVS

[21] = viability of PTEN-deleted HCT116 cells – cell-based, HCT116 PTEN knockout, dose response (AID 1047); assay type: functional;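 also: HCT116 colon tumor cells with PTEN knocked out; cells exposed to compound for 60 hours before readout; potency for loss of cell viability measured by luminescence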
[22] = viability of HCT116 lacking mutant beta-catenin – cell-based, human colon tumor, dose response (AID 1045); assay type: functional;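 also: HCT116 colon tumor cells with beta catenin knocked out; cells exposed to compound for 60 hours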
[23] = tested on: INS1; test: INS-1E survival protection against cytokine death – cell-based, luminescence, retest, dose response (AID 449756); assay type: functional; conditions: Rattus norvegicus;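 also: cell death triggered by IL-1 beta plus TNF-alpha plus IFN-gamma mixture; protective hits raise ATP signal compared with cytokine alone wells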
[24] = target: Cytochrome P450 2C19 (Homo sapiens, UniProt P33261); test: Cytochrome panel assay with activity outcomes. Panel member name: p450-cyp2c19 Compounds with AC50 equal or less than 10 uM are considered active; assay type: functional; conditions: read-out: AC50
[25] = target: Cytochrome P450 2C9 (Homo sapiens, UniProt P11712)
Sequence of Cytochrome P450 2C9 (P11712 whole entry): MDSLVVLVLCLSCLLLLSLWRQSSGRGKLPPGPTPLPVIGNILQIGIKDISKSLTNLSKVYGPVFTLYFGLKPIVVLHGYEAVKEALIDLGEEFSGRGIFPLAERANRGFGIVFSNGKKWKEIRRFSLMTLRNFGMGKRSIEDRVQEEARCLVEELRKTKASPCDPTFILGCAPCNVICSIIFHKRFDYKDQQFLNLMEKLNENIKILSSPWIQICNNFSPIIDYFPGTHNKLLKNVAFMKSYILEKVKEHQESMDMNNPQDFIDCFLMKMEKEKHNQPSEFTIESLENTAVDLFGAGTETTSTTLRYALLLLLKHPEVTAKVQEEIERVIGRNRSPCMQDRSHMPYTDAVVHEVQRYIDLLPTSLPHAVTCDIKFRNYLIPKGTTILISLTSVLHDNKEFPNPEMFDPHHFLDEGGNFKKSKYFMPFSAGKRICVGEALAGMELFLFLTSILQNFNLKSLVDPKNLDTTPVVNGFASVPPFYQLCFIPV

Sequence of Nonstructural protein 1 (Q194T2 whole entry): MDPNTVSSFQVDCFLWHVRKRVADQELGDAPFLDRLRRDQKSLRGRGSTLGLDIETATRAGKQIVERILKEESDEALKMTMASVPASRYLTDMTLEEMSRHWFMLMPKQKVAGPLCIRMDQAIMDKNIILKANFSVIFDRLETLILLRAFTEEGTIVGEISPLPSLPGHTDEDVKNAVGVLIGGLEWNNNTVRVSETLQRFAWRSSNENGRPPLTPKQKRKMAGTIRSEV
T2 sequence (P49327 whole entry): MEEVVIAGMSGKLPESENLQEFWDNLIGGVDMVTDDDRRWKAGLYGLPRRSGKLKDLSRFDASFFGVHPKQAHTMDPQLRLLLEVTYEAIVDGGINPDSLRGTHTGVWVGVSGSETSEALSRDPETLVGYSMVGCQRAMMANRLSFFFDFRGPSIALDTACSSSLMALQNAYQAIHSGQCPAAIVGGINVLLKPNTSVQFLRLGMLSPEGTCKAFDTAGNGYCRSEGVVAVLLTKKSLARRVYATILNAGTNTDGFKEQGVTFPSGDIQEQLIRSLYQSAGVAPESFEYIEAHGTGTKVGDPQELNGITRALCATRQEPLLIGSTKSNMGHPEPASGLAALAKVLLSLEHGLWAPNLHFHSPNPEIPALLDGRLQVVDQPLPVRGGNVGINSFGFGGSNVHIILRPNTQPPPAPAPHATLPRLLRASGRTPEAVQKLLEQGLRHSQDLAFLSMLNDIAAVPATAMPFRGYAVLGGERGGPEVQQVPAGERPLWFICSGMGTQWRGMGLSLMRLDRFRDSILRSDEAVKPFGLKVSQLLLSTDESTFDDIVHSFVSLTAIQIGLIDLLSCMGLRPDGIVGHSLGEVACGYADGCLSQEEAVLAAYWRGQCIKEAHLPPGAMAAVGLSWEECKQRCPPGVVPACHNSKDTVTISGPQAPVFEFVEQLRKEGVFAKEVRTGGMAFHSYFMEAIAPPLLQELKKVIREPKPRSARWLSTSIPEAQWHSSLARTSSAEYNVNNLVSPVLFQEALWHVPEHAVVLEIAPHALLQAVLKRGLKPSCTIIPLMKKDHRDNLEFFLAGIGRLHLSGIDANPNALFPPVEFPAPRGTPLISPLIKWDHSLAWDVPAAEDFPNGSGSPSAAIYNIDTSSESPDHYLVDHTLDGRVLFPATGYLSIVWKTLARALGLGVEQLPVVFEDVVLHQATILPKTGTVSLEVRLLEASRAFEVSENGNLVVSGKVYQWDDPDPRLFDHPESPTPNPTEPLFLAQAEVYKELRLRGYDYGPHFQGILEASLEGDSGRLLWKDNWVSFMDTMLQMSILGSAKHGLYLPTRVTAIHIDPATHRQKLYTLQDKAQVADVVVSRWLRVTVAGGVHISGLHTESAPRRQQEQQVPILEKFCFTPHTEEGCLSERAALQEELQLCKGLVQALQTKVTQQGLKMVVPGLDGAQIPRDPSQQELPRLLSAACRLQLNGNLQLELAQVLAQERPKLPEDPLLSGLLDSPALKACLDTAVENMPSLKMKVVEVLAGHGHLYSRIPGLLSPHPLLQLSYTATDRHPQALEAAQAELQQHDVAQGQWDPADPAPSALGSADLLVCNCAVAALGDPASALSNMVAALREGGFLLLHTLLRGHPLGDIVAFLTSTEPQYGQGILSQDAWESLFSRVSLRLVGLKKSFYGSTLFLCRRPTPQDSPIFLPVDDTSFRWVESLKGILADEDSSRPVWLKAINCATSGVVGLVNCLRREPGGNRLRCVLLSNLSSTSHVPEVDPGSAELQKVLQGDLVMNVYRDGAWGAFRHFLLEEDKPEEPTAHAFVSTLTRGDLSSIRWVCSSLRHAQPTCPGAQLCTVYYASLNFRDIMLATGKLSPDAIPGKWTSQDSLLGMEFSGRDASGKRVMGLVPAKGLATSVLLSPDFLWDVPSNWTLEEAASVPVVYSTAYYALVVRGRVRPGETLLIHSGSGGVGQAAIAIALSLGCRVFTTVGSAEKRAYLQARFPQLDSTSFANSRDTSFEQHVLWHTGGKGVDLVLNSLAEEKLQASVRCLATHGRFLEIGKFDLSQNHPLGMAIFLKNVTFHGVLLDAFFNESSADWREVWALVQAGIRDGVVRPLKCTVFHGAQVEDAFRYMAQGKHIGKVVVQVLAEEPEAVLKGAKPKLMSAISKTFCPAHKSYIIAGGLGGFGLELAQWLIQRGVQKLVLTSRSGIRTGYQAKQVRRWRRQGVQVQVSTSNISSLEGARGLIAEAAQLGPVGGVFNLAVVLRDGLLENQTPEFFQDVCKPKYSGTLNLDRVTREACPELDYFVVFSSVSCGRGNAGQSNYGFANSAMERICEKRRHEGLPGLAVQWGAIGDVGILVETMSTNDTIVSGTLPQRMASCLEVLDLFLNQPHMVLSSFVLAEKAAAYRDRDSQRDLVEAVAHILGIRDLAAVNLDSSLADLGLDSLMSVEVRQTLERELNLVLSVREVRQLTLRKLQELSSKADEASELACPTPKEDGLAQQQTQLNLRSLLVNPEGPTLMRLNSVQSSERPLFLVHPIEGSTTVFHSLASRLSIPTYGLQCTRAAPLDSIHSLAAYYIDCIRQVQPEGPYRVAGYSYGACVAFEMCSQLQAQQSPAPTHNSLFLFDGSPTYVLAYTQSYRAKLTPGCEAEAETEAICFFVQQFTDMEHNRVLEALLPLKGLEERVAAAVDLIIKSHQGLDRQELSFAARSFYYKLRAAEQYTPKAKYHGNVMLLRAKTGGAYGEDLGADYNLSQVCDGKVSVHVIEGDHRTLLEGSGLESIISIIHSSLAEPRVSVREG
Sequence of Cytochrome P450 2C19 (P33261 whole entry): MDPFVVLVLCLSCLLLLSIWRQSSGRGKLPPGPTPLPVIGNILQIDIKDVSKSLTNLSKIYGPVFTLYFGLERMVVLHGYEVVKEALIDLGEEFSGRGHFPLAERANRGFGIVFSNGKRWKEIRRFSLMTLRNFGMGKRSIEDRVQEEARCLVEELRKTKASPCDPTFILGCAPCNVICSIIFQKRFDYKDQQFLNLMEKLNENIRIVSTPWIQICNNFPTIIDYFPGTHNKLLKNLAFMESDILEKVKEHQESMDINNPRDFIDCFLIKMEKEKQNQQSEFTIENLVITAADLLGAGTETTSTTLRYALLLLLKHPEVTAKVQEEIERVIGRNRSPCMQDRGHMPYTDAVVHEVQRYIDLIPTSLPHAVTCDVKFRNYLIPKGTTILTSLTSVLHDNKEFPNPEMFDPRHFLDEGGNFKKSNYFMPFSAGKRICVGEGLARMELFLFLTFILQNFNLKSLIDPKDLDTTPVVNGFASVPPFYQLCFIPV
Sequence of Genome polyprotein (P29990 2492-3391 limits assumed): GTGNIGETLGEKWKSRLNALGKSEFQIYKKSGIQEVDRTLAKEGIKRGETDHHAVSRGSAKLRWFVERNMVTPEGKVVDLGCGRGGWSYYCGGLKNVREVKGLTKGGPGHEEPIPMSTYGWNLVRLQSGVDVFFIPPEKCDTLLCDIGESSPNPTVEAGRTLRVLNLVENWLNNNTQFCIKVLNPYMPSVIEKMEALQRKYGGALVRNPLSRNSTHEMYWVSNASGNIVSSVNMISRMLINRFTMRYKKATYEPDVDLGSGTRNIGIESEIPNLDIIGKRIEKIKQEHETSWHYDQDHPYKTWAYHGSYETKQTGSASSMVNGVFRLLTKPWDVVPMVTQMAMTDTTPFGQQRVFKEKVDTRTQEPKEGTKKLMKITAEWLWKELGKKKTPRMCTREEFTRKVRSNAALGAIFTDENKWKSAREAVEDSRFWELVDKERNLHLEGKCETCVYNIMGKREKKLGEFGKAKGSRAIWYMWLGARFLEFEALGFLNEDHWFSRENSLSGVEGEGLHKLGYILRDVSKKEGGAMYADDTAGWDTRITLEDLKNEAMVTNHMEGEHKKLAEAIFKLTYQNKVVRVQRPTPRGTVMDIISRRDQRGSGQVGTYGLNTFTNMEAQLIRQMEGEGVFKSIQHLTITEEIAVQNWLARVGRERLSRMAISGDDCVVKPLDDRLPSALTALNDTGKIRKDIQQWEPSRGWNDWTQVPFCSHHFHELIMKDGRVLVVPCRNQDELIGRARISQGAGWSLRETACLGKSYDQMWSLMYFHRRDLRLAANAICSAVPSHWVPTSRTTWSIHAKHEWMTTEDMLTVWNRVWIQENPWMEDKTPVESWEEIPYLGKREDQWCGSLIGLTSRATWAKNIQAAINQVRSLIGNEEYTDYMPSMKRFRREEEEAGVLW

With `O=C(CN1CC(=O)Oc2ccccc21)NCc1ccco1` the IC50 [1] was 6.58 µM (active).

With `CCCc1nc2oc3c(NCCN(C)C)ncnc3c2c2c1CCCC2` the EC50 [2] was 1.68 µM (active).

For `Cc1ccc(S(=O)(=O)N2[C@@H](c3ccc(C(C)(C)C)cc3)C(C(=O)O)=CC[C@H]2c2ccc(Cl)cc2)cc1`, the IC50 [3] was 11.3 µM (active), the CC50 [4] was > 40 µM (active) and the IC50 [5] was 10.9 µM (active). For the same compound, the IC50 [6] was 39.6 µM (active).

With `CCOC(=O)C1(CC2CC2)CCN(Cc2ccc(O)c(Cl)c2)CC1` the EC50 [2] was 0.376 µM (active) and the EC50 [7] was 0.841 µM (active).

In the case of `CCCCNC(=Nc1ccc(Cl)cc1)c1cccnc1`, the EC50 [2] is reported as 7.5 µM (active).

For `OC1(c2ccccc2)C[N+](c2ccccc2)=C2SCCN21` (stereo unspecified), the EC50 [2] was 1.5 µM (active) and the EC50 [7] was 1.88 µM (active).

With `Cc1ccc(COC(=O)c2cc([N+](=O)[O-])ccc2N2CCOCC2)cc1` the EC50 [8] was 0.529 µM (inconclusive), the IC50 [3] was 9.01 µM (active) and the EC50 [9] was 11 µM (inconclusive). The IC50 [10] was > 80 µM (inactive), the IC50 [5] was 10.3 µM (active) and the EC50 [11] was 0.223 µM (active). The EC50 [12] was 0.127 µM (inconclusive).

For `COc1ccc(C(C)(C)C)cc1NC(=O)Nc1ccc2c(c1)OCO2`, the AC50 [13] was 6.11 µM (active) and the AC50 [14] was 7.91 µM (active).

With `COc1ccc(Br)cc1C(C[N+](=O)[O-])c1c(N)n(C)c(=O)n(C)c1=O` (stereo unspecified) the CC50 [15] was 10.5 µM (active), the AC50 [13] was 3.46 µM (active) and the AC50 [16] was 8.73 µM (active).

In the case of `COc1ccc(N2CCN(C(=O)c3cccc(Cn4cc(Cl)cn4)c3)CC2)cc1`, the IC50 [1] is reported as > 100 µM (active).

With `CCOc1ccccc1NS(=O)(=O)c1ccc(-c2cnc(C3CC3)o2)cc1` the IC50 [10] was > 80 µM (inactive).

With `O=C(COC(=O)CCN1C(=O)/C(=C\C=C\c2ccccc2)SC1=S)Nc1cc(F)ccc1F` the IC50 [17] was 26.4 µM (active) and the AC50 [16] was 7.49 µM (active).

In the case of `Cc1cc(C)cc(Nc2c([N+](=O)[O-])nn(-c3ccc(Cl)cc3)[n+]2[O-])c1`, the EC50 [18] is reported as 0.387 µM (active), the IC50 [1] is reported as > 100 µM (active) and the EC50 [19] is reported as > 60 µM (not active).

With `Cc1ccc(NS(=O)(=O)c2ccc(N3CCN(c4ccc(O)cc4)CC3)c([N+](=O)[O-])c2)c(C)c1` the AC50 [14] was 4.4 µM (active).

In the case of `Cc1ccc(-c2cc(C(=O)N3N=C(C(F)F)CC3(O)C(F)F)c3ccccc3n2)cc1C` (stereo unspecified), the AC50 [13] is reported as 4.73 µM (active), the EC50 [20] is reported as 188 µM (active) and the AC50 [14] is reported as 6.22 µM (active). For the same compound, the EC50 [21] was 38.6 µM (active), the EC50 [18] was 2.45 µM (active) and the EC50 [19] was > 30 µM (not active). For the same compound, the EC50 [22] was 39.4 µM (active).

In the case of `CCN(C(=O)c1c(-c2ccccc2Cl)noc1C)C1CCCCC1`, the EC50 [2] is reported as 9.44 µM (active).

In the case of `CC(C(=O)N(C)C1CCS(=O)(=O)C1)N1C(=O)/C(=C/c2ccco2)SC1=S` (stereo unspecified), the CC50 [4] is reported as 35.4 µM (active).

With `Cc1cc(C(C)(C)C)cc(C)c1C[n+]1ccc2ccccc2c1` the AC50 [23] was 1.45 µM (active) and the IC50 [10] was > 80 µM (inactive).

With `CCOC(=O)CC1=NN(c2ccccc2)C(=O)/C1=C\c1ccc(N(C)C)cc1` the IC50 [1] was 15.7 µM (active).

For `COc1ccc(SN=C2C(C)=CC(=O)C=C2C)cc1`, the AC50 [14] was 6.51 µM (active).

For `Cc1cccc(Nc2nc(N)c([N+](=O)[O-])c(N3CCCC(C)C3)n2)c1` (stereo unspecified), the AC50 [14] was 4.6 µM (active).

In the case of `O=C(Nc1ccc(OC(F)(F)F)cc1)c1n[nH]cc1[N+](=O)[O-]`, the AC50 [16] is reported as 0.601 µM (active).

For `O=C(Nc1ccccc1N1CCOCC1)c1ccc([N+](=O)[O-])s1`, the AC50 [14] was 7.97 µM (active) and the AC50 [16] was 12.3 µM (active).

With `C[C@@]12C(=O)Nc3ccc(F)cc3C(=O)N1[C@H]1c3ccccc3OC[C@@H]1[C@@H]2c1ccccc1` the AC50 [14] was 5.82 µM (active).

With `COc1ccc2c(c1)[C@H]1[C@H](CO2)[C@H](c2ccccc2)[C@]2(C)C(=O)Nc3ccc(Cl)cc3C(=O)N12` the AC50 [14] was 3.14 µM (active).

For `S=c1sscc1-c1ccccc1`, the IC50 [1] was 32.7 µM (active).

In the case of `O=c1c2c(-c3ccccc3)csc2ncn1/N=C/c1cccc([N+](=O)[O-])c1O`, the EC50 [2] is reported as 10.6 µM (active) and the EC50 [7] is reported as 9.44 µM (active).

With `Cc1cccn2c(=O)c(/C=N/O)c(N3CCCC3)nc12` the AC50 [24] was 31.6 µM (inconclusive), the EC50 [2] was 1.88 µM (active) and the AC50 [25] was “inconclusive”.
